Data published in article PMC7471466 (Acta Pharmacologica Sinica, 2020).
Where two headings read alike, the source gives them in different places.

Assays:
[1] = patients, high dose (>50 mg MTX/kg) therapy regimens; cited from earlier work
[2] = tested on: rat hepatocytes; details: read-out: IC50 (toxic to hepatocytes); cited from earlier work
[3] = tested on: sandwich-cultured rat hepatocytes; details: concentration-dependent
[4] = tested on: AOX3 mRNA; details: rat hepatocytes, 0–20 μM NIM for 24 h
[5] = tested on: human hepatocytes; details: read-out: IC50 (toxic to hepatocytes); cited from earlier work
[6] = tested on: AOX3 mRNA; details: rat livers, 20, 50, 100 mg·kg−1·d−1 NIM for 5 days
[7] = tested on: AOX1; details: rat livers, 20, 50, 100 mg·kg−1·d−1 NIM for 5 days, dose-dependent
[8] = tested on: AOX; assay type: cell-based, human; details: for increase in 7-OH MTX yields vs control: human hepatocytes
[9] = tested on: OATPs; details: cited from earlier work
[10] = tested on: AOX1; details: rat hepatocytes, 0–20 μM NIM for 24 h, concentration-dependent
[11] = tested on: AOX; details: NIM 5–20 μM directly added to the RLC incubation of MTX
[12] = tested on: AOX; assay: AOX activity in rat hepatocytes, 7-OH MTX formation from probe substrate MTX; assay type: cell-based; details: for increase in 7-OH MTX yield vs control: then MTX 50 μM
[13] = tested on: AOX3; details: rat livers, 20, 50, 100 mg·kg−1·d−1 NIM for 5 days, dose-dependent
[14] = tested on: MRP2; details: cited from earlier work
[15] = tested on: AOX1 mRNA; details: rat hepatocytes, 0–20 μM NIM for 24 h
[16] = tested on: AOX
[17] = tested on: AOX3; details: rat hepatocytes, 0–20 μM NIM for 24 h, concentration-dependent
[18] = NIM-treated rats, 100 mg·kg−1·d−1, 5 days, vs nontreated rats

Q: With `CN(Cc1cnc2nc(N)nc(N)c2n1)c1ccc(C(=O)N[C@@H](CCC(=O)O)C(=O)O)cc1` [MTX, methotrexate] as the compound, how does the “MTX excreted as 7-OH MTX” value [1] read?
A: The value was no more than 33%.

Q: Which “increase in accumulated excretion of 7-OH MTX in 0–24 h feces” value (male, Wistar, rat, feces, oral) does the source give for `CS(=O)(=O)Nc1ccc([N+](=O)[O-])cc1Oc1ccccc1` [NIM, nimesulide] here?
A: The value was 2.1 fold.

Q: What about the “increase in accumulated excretion of 7-OH MTX in 0–24 h urine” value (male, Wistar, rat, urine, oral) of the same compound?
A: Its value is 5.2 fold.

Q: What about the “increase in accumulated excretion of MTX in 0–24 h urine” value (male, Wistar, rat, urine, oral) of the same compound?
A: The value was 1.8 fold.

Q: And the “accumulated excretion of MTX in 0–24 h feces” value (rats, 100 mg·kg−1·d−1 NIM for 5 days, then oral MTX 50 mg/kg)?
A: The value was “no significant change”.

Q: What about the IC50 [2] of the same compound?
A: Its IC50 is 40 µM.

Q: And the “cellular plus biliary accumulation of MTX” value [3]?
A: Its value is “reduced”.

Q: What about the “AOX3 mRNA level” value [4] of the same compound?
A: Its value is “did not alter”.

Q: And the IC50 [5]?
A: Its IC50 is 213 µM.

Q: And the “AOX3 mRNA level” value [6]?
A: Its value is “no significant alteration”.

Q: And the AOX1 protein level [7]?
A: The AOX1 protein level was “increased”.

Q: What about the “increase in 7-OH MTX yields vs control” value ([8]; 10 μM NIM for 24 h) of the same compound?
A: The value was 1.3 fold.

Q: And the “increase in 7-OH MTX yields vs control” value ([8]; 50 μM NIM for 24 h)?
A: The value was 1.7 fold.

Q: What about the “increase in 7-OH MTX yields vs control” value ([8]; 100 μM NIM for 24 h) of the same compound?
A: The value was 2.0 fold.

Q: And the “increase in 7-OH MTX formation” value ([8]; primary human hepatocytes, NIM (20 μM) for 24 h)?
A: Its value is 2.0 fold.

Q: And the “inhibition of OATPs” value [9]?
A: The value was “inhibitor”.

Q: And the AOX1 protein level [10]?
A: Its AOX1 protein level is “increased”.

Q: And the “7-OH MTX formation vs incubation containing no NIM” value [11]?
A: Its value is “no significant difference”.

Q: What about the “increase in 7-OH MTX yields vs control” value ([12]; 5 μM NIM for 24 h) of the same compound?
A: Its value is 1.3 fold.

Q: And the “increase in 7-OH MTX yields vs control” value ([12]; 10 μM NIM for 24 h)?
A: The value was 1.8 fold.

Q: And the “increase in 7-OH MTX yield vs control” value ([12]; 20 μM NIM for 12 h)?
A: Its value is 1.7 fold.

Q: What about the “increase in 7-OH MTX yields vs control” value ([12]; 20 μM NIM for 24 h (concentration experiment)) of the same compound?
A: The value was 3.1 fold.

Q: What about the “increase in 7-OH MTX yield vs control” value ([12]; 20 μM NIM for 24 h (induction time experiment)) of the same compound?
A: The value was 2.5 fold.

Q: What about the “increase in 7-OH MTX yield vs control” value ([12]; 20 μM NIM for 48 h) of the same compound?
A: Its value is 2.7 fold.

Q: What about the “increase in 7-OH MTX yield vs control” value ([12]; 20 μM NIM for 72 h) of the same compound?
A: Its value is 2.7 fold.

Q: What about the AOX3 protein level [13] of the same compound?
A: Its AOX3 protein level is “decreased”.

Q: And the “inhibition of MRP2” value [14]?
A: The value was “inhibitor”.

Q: What about the “AOX1 mRNA level” value [15] of the same compound?
A: Its value is “did not alter”.

Q: And the “increase in AOX-mediated metabolite from JNJ-38877605 in liver cytosol” value [16, 18]?
A: The value was 3.8 fold.

Q: And the “increase in AOX-mediated metabolite from SGX523 in liver cytosol” value [16, 18]?
A: The value was 3.4 fold.

Q: And the “increase in AOX-mediated metabolite from phthalazine in liver cytosol” value [16, 18]?
A: The value was 2.5 fold.

Q: What about the “increase in 7-OH MTX formation in liver cytosol vs vehicle” value (from here on “increase … vs vehicle”) ([16]; rats pretreated with 20 mg·kg−1·d−1 NIM for 5 days) of the same compound?
A: The value was 1.9 fold.

Q: What about the “increase … vs vehicle” value ([16]; rats pretreated with 50 mg·kg−1·d−1 NIM for 5 days) of the same compound?
A: The value was 3.2 fold.

Q: What about the “increase … vs vehicle” value ([16]; rats pretreated with 100 mg·kg−1·d−1 NIM for 1 day) of the same compound?
A: The value was 1.0 fold.

Q: And the “increase … vs vehicle” value ([16]; rats pretreated with 100 mg·kg−1·d−1 NIM for 3 days)?
A: Its value is 2.0 fold.

Q: What about the “increase … vs vehicle” value ([16]; rats pretreated with 100 mg·kg−1·d−1 NIM for 5 days (dose experiment)) of the same compound?
A: The value was 3.7 fold.

Q: What about the “increase … vs vehicle” value ([16]; rats pretreated with 100 mg·kg−1·d−1 NIM for 5 days (time experiment)) of the same compound?
A: Its value is 3.8 fold.

Q: What about the AOX3 protein level [17] of the same compound?
A: The AOX3 protein level was “decreased”.
